From patent publication US20110028552A1, “MEXILETINE AMINO ACID AND PEPTIDE PRODRUGS AND USES THEREOF” (priority 2009, published 2011)
Several values for one entry are separate records, joined by “and”; a condition that tells them apart may be missing. Identical values can stand only once. Counter-ions that a name gives are not always drawn. Like-named read-outs stand apart in the source and are kept apart here.

Columns and labels:
[1] = test system: rabbit stomach smooth muscle; assay: EFS-stimulated contractions of isolated rabbit stomach smooth muscle; conditions: rabbit stomach antrum strips; EFS 14 Hz
[2] = Systemic availability of mexiletine in the dog after oral prodrug dosing; type: in vivo, Dog (Beagle); conditions: 1 mg/kg mexiletine free base
Description: Test substances (i.e., mexiletine, and various mexiletine amino acid prodrugs) were administered by oral gavage to groups of five dogs. The characteristics of the test animals are set out in Table 6.
Blood samples were taken at various times after administration and submitted to analysis for parent drug using a validated LC-MS-MS assay. Pharmacokinetic parameters derived from the plasma analytical were determined using Win Nonlin.

hNav 1.1 channel = molecular target: T1, hNav 1.1 channel (Homo sapiens, UniProt P35498); assay: Block of cloned hNav1.1 channel in CHO cells (IonWorks Quattro); type: cell-based; conditions: for IC50 fold above the parent: relative to mexiletine
T1 construct: expressed in transfected cells
Description: Data was corrected for leak current.
The tonic block was calculated as:
% Block (Tonic)=(1−ITP1,TA/ITP1,Control)×100%,
where ITP1, Control and ITP1, TA are the inward peak Na^+ currents elicited by the TP1 in control and in the presence of a test article, respectively. 10 Hz Block—the frequency-dependent block at stimulation frequency 10 Hz was calculated as: […]
where ITP11, Control and ITP11, TA are the inward peak Na^+ currents elicited by the TP11 in control and in the presence of a test article, respectively. The inactivation state block is defined as the decrease in test pulse (TP12) current amplitude due to the conditioning depolarizing pulse (TP11). The inactivation state block was calculated as:
% Block (inactivation state)=(1−(ITP12,TA/ITP12,TA)×100%,
where ITP12, Control and ITP12, TA are the inward peak Na^+ currents elicited by the TP12 in control and in the presence of a test article, respectively. Concentration-response data for the blocks were fit to an equation of the following form: […]

[3] = mexiletine from prodrug vs parent
Description: Blood samples were taken at various times after administration and submitted to analysis for the prodrug and parent drug using a validated LC-MS-MS assay. Pharmacokinetic parameters derived from the plasma analytical were determined using Win Nonlin.

[4] = Systemic availability of mexiletine in the cynomolgus monkey after oral prodrug dosing; type: in vivo; conditions: 1 mg/kg mexiletine free base
[5] = cited from earlier work
[6] = cited from earlier work; remark: listed apart in the source
sodium channel = conditions: De Bellis et al. (2006); cited from earlier work
[7] = hNav1.1 in CHO cells, frequency-dependent block at 10 Hz (TP11), read-out: IC50 10 Hz block
[8] = hNav1.1 in CHO cells, inactivation state block (TP12), read-out: IC50 Inactivated state
[9] = hNav1.1 in CHO cells, tonic block (TP1), read-out: IC50 Tonic block
[10] = hNav1.1, 10 Hz block, rounded values, read-out: IC50 values (with the 10 Hz block)

With `Cc1cccc(C)c1OCC(C)NC(=O)CN.O=C(O)C(F)(F)F` (racemic) [(rac)-mexiletine-glycine trifluoroacetate] the “calculated ED50, attenuation of EFS induced contractions” value (“calculated ED50, attenuation” below) [1] was 9.16 µM, the “F (abs)” value [2] was 57 ± 6% and the IC50 (hNav 1.1 channel; [7]) was 107 µM. For the same molecule, the IC50 (hNav 1.1 channel; [8]) was 21.2 µM, the IC50 (hNav 1.1 channel; [9]) was 398 µM and the “duration of vomiting relative to mexiletine” value (ferret; % of that seen after mexiletine itself) was “less than 30%”. The “average number of vomits relative to parent drug” value (ferret; % of those observed after dosing the parent drug) was “less than 30%”, the Frel ([3]; individual ferrets, oral 10 mg free base equivalents/kg) was 67% and 107% and 103% and 77% and 108% and 101% and the “Frel, Mean” value ([3]; mean of six ferrets) was 94%. The “F (abs)” value [4] was 41.5 ± 4.11%.
In the case of `Cc1cccc(C)c1OCC(C)N.Cl` (racemic) [Mexiletine hydrochloride, (rac)-1-(2,6-dimethylphenoxy)-2-propanamine hydrochloride, reference compound], the “calculated ED50, attenuation” value [1] is reported as 2.17 µM, the IC50 (hNav 1.1 channel; [10]) is reported as 38 µM and the IC50 (hNav 1.1 channel; [7]) is reported as 38.2 µM. The IC50 (hNav 1.1 channel; [8]) was 9.1 µM and the IC50 (hNav 1.1 channel; [9]) was 115 µM.
In the case of `Cc1cccc(C)c1OCC(C)NC(=O)[C@@H](N)CCCCN` (mixture of isomers) [Mexiletine lysine amide, 2,6-diamino-hexanoic acid [2-(2,6-dimethylphenoxy)-1-methylethyl]-amide ditrifluoroacetate], the “calculated ED50, attenuation” value [1] is reported as 21.83 µM.
With `Cc1cccc(C)c1OCC(C)NC(=O)[C@@H](N)CC[S+](C)C.Cl.[Cl-]` (stereo partly drawn) [(S)-2-Amino-N-[2-(2,6-dimethyl-phenoxy)-1-methyl-ethyl]-4-(dimethyl-λ^4-sulfanyl chloride)-butyramide hydrochloride] the “IC50 fold above the parent” value (hNav 1.1 channel; hNav1.1) was roughly 20 fold, the IC50 (hNav 1.1 channel; [7]) was greater than 1000 µM and the IC50 (hNav 1.1 channel; [8]) was greater than 1000 µM. It also gave an IC50 (hNav 1.1 channel; [9]) greater than 1000 µM.
For `CNCC[C@H](Oc1cccc2ccccc12)c1cccs1` [Duloxetine], the “treated patients with nausea” value ([5]; FDA labeling) is listed as 20-40%.
Work on `Cc1cccc(C)c1OCC(C)NC(=O)C(C)CN` (stereo not drawn) [Mexiletine 2-methyl β alanine amide] yielded an IC50 (hNav 1.1 channel; [7]) of 51.8 µM, an IC50 (hNav 1.1 channel; [8]) of 16.3 µM and an IC50 (hNav 1.1 channel; [9]) of 137 µM.
In the case of `Cc1cccc(C)c1OCC(C)NC(=O)C1CC(O)CN1` (centres unmarked) [Mexiletine 4-hydroxyproline amide], the IC50 (hNav 1.1 channel; [7]) is reported as 37 µM, the IC50 (hNav 1.1 channel; [8]) is reported as 15.5 µM and the IC50 (hNav 1.1 channel; [9]) is reported as 147 µM.
`Cc1cccc(C)c1OCC(C)NC(=O)C(N)CCCNC(N)=O` (centres unmarked) [Mexiletine citrulline amide] showed an IC50 (hNav 1.1 channel; [7]) of 359 µM, an IC50 (hNav 1.1 channel; [8]) of 180 µM and an IC50 (hNav 1.1 channel; [9]) of 491 µM.
In the case of `Cc1cccc(C)c1OCC(C)NC(=O)C(N)C1CC1` (centres unmarked) [Mexiletine cyclopropyl glycine amide], the IC50 (hNav 1.1 channel; [7]) is reported as 170 µM, the IC50 (hNav 1.1 channel; [8]) is reported as 42.7 µM and the IC50 (hNav 1.1 channel; [9]) is reported as 475 µM.
Work on `Cc1cccc(C)c1OCC(C)NC(=O)CN(C)C` (centres unmarked) [Mexiletine dimethylglycine amide] yielded an IC50 (hNav 1.1 channel; [7]) of 10.3 µM, an IC50 (hNav 1.1 channel; [8]) of 3.2 µM and an IC50 (hNav 1.1 channel; [9]) of 30.5 µM.
For `Cc1cccc(C)c1OCC(C)NC(=O)[C@@H](N)CCC(=O)O.Cl` (stereo partly drawn) [Mexiletine glutamic acid amide, (S)-4-Amino-4-[2-(2,6-dimethyl-phenoxy)-1-methyl-ethylcarbamoyl]-butyric acid hydrochloride], the IC50 (hNav 1.1 channel; [10]) was greater than 1000 µM, the “IC50 fold above the parent” value (hNav 1.1 channel; hNav1.1) was roughly 20 fold and the IC50 (hNav 1.1 channel; [7]) was greater than 1000 µM. It also gave an IC50 (hNav 1.1 channel; [8]) greater than 1000 µM and an IC50 (hNav 1.1 channel; [9]) greater than 1000 µM.
`Cc1cccc(C)c1OCC(C)NC(=O)[C@@H](N)CCC(N)=O` (stereo partly drawn) [Mexiletine glutamine amide, (S)-2-Amino-pentanedioic acid 5-amide 1-{[2-(2,6-dimethyl-phenoxy)-1-methyl-ethyl]-amide}hydrochloride] showed an IC50 (hNav 1.1 channel; [7]) of 139 µM, an IC50 (hNav 1.1 channel; [8]) of 67.3 µM and an IC50 (hNav 1.1 channel; [9]) of 751 µM.
Work on `Cc1cccc(C)c1OCC(C)NC(=O)C(N)Cc1c[nH]cn1` (centres unmarked) [Mexiletine histidine amide] yielded an IC50 (hNav 1.1 channel; [7]) of 42.1 µM, an IC50 (hNav 1.1 channel; [8]) of 21.2 µM and an IC50 (hNav 1.1 channel; [9]) of 79.5 µM.
For `Cc1cccc(C)c1OCC(C)NC(=O)[C@@H](N)CCCCNC(=N)N` (stereo partly drawn) [Mexiletine homoarginine amide, (S)-2-Amino-6-guanidino-hexanoic acid [2-(2,6-dimethyl-phenoxy)-1-methyl-ethyl]-amide dihydrochloride], the IC50 (hNav 1.1 channel; [10]) was 624 µM, the “IC50 fold above the parent” value (hNav 1.1 channel; hNav1.1) was roughly 20 fold and the IC50 (hNav 1.1 channel; [7]) was 624 µM. For the same molecule, the IC50 (hNav 1.1 channel; [8]) was 257 µM and the IC50 (hNav 1.1 channel; [9]) was 742 µM.
With `Cc1cccc(C)c1OCC(C)NC(=O)c1ccncc1` (centres unmarked) [Mexiletine isonicotinic acid amide] the IC50 (hNav 1.1 channel; [7]) was 439 µM, the IC50 (hNav 1.1 channel; [8]) was 130 µM and the IC50 (hNav 1.1 channel; [9]) was 818 µM.
With `Cc1cccc(C)c1OCC(C)NC(=O)c1cccnc1` (centres unmarked) [Mexiletine nicotinic acid amide] the IC50 (hNav 1.1 channel; [7]) was 350 µM, the IC50 (hNav 1.1 channel; [8]) was 61.2 µM and the IC50 (hNav 1.1 channel; [9]) was 495 µM.
In the case of `Cc1cccc(C)c1OCC(C)NC(=O)[C@@H](N)Cc1ccccc1.Cl` (some centres unmarked) [Mexiletine phenylalanine amide], the “F (abs)” value [2] is reported as 38 ± 6%.
In the case of `Cc1cccc(C)c1OCC(C)NC(=O)C1CCCCN1` (centres unmarked) [Mexiletine pipecolic acid amide], the IC50 (hNav 1.1 channel; [7]) is reported as 6 µM, the IC50 (hNav 1.1 channel; [8]) is reported as 2.7 µM and the IC50 (hNav 1.1 channel; [9]) is reported as 26 µM.
`CNCC(=O)NC(C)COc1c(C)cccc1C` (centres unmarked) [Mexiletine sarcosine amide] showed an IC50 (hNav 1.1 channel; [7]) of 38.9 µM, an IC50 (hNav 1.1 channel; [8]) of 6.3 µM and an IC50 (hNav 1.1 channel; [9]) of 186 µM.
`Cc1cccc(C)c1OCC(C)NC(=O)C(N)CO` (centres unmarked) [Mexiletine serine amide] gave an IC50 (hNav 1.1 channel; [7]) of 50.3 µM, an IC50 (hNav 1.1 channel; [8]) of 14.1 µM and an IC50 (hNav 1.1 channel; [9]) of 239 µM.
Work on `Cc1cccc(C)c1OCC(C)NC(=O)C(N)C(C)O` (centres unmarked) [Mexiletine threonine amide] yielded an IC50 (hNav 1.1 channel; [7]) of 41.4 µM, an IC50 (hNav 1.1 channel; [8]) of 11.6 µM and an IC50 (hNav 1.1 channel; [9]) of 234 µM.
For `Cc1cccc(C)c1OCC(C)NC(=O)[C@@H](N)C(C)C.Cl` (some centres unmarked) [Mexiletine valine amide], the “F (abs)” value [2] was 35 ± 6%.
For `Cc1cccc(C)c1OCC(C)NC(=O)[C@@H](NC(=O)[C@@H](N)C(C)C)C(C)C.Cl` (some centres unmarked) [Mexiletine valine-valine amide], the “F (abs)” value [2] was 50 ± 9%.
With `Cc1cccc(C)c1OCC(C)NC(=O)CCN` (stereo not drawn) [Mexiletine β alanine amide] the IC50 (hNav 1.1 channel; [7]) was 59.5 µM, the IC50 (hNav 1.1 channel; [8]) was 23.5 µM and the IC50 (hNav 1.1 channel; [9]) was 245 µM.
In the case of `Cc1cccc(C)c1OCC(C)NC(=O)C(N)CN` (stereo not drawn) [Mexiletine β amino alanine amide], the IC50 (hNav 1.1 channel; [7]) is reported as 180 µM, the IC50 (hNav 1.1 channel; [8]) is reported as 61.8 µM and the IC50 (hNav 1.1 channel; [9]) is reported as 478 µM.
In the case of `NCC1(CC(=O)O)CCCCC1` [gabapentin], the Bioavailability ([6]; 900 mg/day gabapentin) is listed as “approximately 60%”, the Bioavailability ([6]; 1200 mg/day gabapentin) is listed as roughly 47% and the Bioavailability ([6]; 2400 mg/day gabapentin) is listed as roughly 34%. For the same molecule, the Bioavailability ([6]; 3600 mg/day gabapentin) was roughly 33% and the Bioavailability ([6]; 4800 mg/day gabapentin) was roughly 27%.
For `CC(C)C[C@H](CN)CC(=O)O` [pregabalin], the “patients with dizziness and somnolence” value ([5]; patients treated at the higher doses (FDA labeling)) is listed as “up to 30%”.
For Para-hydroxymexiletine, the “sodium channel inhibitory activity retained vs parent molecule” value (sodium channel) is given as “around 25%”.
